Measured values taken from paper PMC5193077, “An Allosteric Potentiator of the Dopamine D1 Receptor Increases Locomotor Activity in Human D1 Knock-In Mice without Causing Stereotypy or Tachyphylaxis” (The Journal of Pharmacology and Experimental Therapeutics, 2017).
“And” between values parts separate entries of the source, which are not always exact repeats. Equal entries are not always repeated. “Also recorded” adds a separate entry of the source.

Key:
5HT6 receptor = 5HT6 receptor (Homo sapiens, UniProt P50406); experiment: 5HT6 cAMP assay (DiscoveRx); type: cell-based; settings: potentiator, agonist and antagonist mode, up to 10 µM
Sequence of 5HT6 receptor (P50406 whole entry): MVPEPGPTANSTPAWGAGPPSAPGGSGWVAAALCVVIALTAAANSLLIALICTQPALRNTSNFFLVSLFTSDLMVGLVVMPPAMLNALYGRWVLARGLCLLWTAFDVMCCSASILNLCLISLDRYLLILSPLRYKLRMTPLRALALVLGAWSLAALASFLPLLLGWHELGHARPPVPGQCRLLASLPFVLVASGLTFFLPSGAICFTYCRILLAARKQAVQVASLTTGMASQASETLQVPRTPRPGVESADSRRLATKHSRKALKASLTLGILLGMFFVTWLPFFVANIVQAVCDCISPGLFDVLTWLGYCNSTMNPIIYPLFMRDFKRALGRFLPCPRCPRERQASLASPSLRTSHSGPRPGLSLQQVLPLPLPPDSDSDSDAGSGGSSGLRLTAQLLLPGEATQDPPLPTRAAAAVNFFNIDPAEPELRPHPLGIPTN
Procedure: (§1) The D2, β1, β2, β3, and 5HT6 cAMP assays were performed at DiscoveRx using the protocols described on their website (www.discoverx.com).

wild-type C57Bl/6 mice = experiment: Locomotor activity (LMA) in wild-type C57Bl/6 mice; type: in vivo, mouse
[1] = test system: 10 additional targets from the standard Lilly selectivity panel; experiment: Standard Lilly selectivity panel, additional targets
human D1 receptor [2] = target: T1, human D1 receptor (Homo sapiens, UniProt P21728); experiment: 3H-SCH23390 binding to human D1 HEK293 cell membranes; settings: 1-100 nM DETQ
T1 sequence (P21728 whole entry): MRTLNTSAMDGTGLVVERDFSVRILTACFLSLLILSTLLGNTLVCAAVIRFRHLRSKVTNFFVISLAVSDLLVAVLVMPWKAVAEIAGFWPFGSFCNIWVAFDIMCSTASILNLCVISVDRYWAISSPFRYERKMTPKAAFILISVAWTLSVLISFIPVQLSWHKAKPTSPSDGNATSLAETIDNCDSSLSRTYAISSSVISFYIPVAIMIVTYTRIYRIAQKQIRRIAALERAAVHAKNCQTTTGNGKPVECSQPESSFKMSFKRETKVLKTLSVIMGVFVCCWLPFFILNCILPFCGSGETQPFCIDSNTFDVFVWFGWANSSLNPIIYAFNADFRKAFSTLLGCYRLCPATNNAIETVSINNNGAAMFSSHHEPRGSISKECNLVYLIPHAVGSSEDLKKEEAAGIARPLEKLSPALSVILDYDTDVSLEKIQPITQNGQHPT

D2 receptor = D2 receptor (Homo sapiens, UniProt P14416); experiment: D2 cAMP assay (DiscoveRx); type: cell-based; settings: potentiator, agonist and antagonist mode, up to 10 µM
Sequence of D2 receptor (P14416 whole entry): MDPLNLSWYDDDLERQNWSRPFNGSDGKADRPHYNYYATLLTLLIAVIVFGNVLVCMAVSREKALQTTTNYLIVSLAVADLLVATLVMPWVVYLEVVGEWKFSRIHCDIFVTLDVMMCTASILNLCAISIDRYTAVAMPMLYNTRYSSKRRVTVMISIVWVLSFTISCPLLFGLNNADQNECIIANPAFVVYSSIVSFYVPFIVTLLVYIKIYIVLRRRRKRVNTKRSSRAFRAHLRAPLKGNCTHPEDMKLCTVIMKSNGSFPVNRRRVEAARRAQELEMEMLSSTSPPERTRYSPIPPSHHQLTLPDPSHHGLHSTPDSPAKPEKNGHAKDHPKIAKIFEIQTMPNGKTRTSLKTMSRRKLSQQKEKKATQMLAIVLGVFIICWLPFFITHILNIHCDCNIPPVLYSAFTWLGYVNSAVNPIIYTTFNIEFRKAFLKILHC
Procedure: as §1

β2 receptor = β2 receptor (Homo sapiens, UniProt P07550); experiment: β2 cAMP assay (DiscoveRx); type: cell-based; settings: potentiator, agonist and antagonist mode, up to 10 µM
Sequence of β2 receptor (P07550 whole entry): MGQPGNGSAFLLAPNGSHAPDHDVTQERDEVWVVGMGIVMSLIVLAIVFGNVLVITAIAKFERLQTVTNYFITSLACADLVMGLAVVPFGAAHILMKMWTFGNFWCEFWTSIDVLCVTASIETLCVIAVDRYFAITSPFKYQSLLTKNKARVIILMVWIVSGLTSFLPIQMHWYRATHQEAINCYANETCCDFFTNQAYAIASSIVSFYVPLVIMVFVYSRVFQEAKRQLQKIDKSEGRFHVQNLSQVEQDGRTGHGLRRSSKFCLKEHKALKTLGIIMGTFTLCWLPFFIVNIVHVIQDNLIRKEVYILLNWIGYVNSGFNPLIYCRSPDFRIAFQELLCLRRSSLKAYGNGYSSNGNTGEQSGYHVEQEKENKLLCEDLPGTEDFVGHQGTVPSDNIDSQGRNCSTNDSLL
Procedure: as §1

human D5 receptor = target: T2, human D5 receptor (Homo sapiens, UniProt P21918); experiment: cAMP response in hD5 CHO cells; type: cell-based
T2 construct: host or cells: CHO
T2 sequence (P21918 whole entry): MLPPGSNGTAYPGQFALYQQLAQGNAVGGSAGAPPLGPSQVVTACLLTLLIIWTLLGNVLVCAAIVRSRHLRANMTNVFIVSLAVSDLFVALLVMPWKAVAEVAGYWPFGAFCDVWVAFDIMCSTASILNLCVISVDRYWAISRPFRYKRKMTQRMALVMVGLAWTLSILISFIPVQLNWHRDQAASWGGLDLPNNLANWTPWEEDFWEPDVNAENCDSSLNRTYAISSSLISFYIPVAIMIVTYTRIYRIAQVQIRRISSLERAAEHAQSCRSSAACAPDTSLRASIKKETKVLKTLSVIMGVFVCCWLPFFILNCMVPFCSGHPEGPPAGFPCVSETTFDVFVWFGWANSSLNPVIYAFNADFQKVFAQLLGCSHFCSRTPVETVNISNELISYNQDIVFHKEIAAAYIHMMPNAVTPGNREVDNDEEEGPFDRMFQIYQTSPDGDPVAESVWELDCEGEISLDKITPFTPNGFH
Procedure: A Chinese hamster ovary (CHO) cell line expressing the human D5 receptor was purchased from DiscoveRx (Fremont, CA) (product no. 92-1043). The hD5 assay was performed in the same way as the hD1 assay except that the EC20 concentration of dopamine was 2 nM.

human D1 receptor [3] = target: T1, human D1 receptor; experiment: cAMP potentiation, transiently expressed human D1 receptor in HEK293 cells; type: cell-based; settings: Human D1, transient
hD1 mice [4] = test system: hD1 mice; parameters: method as in Bruns et al., submitted for publication; settings: reserpine pretreatment; ref Bruns et al., submitted for publication; cited from earlier work
[5] = Free (unbound) brain concentrations of DETQ in hD1 mice; type: in vivo, mouse
Procedure: Immediately after the LMA measurements described in Fig. 8, the brains were removed, and brain homogenate concentrations were determined by liquid chromatography with tandem mass spectrometry. The unbound fraction in brain was determined by equilibrium dialysis in a mouse brain homogenate mixture after incubation of the compound for 4.5 hours ([Kalvass et al., 2007]).
The unbound brain concentrations were calculated from the following equation: […]

hD1 mice [6] = experiment: Locomotor activity (LMA) in hD1 mice; type: in vivo, mouse
Source text: Male hD1 mice, 8–10 weeks old (weighing 18 to 25 g at the time of the experiment), were used. Monitoring of mouse LMA took place in transparent plastic shoebox cages having dimensions of 45 × 25 × 20 cm, with a 1-cm depth of wood chips for absorbent bedding, and covered with a ventilated filtered plastic cage top.
Cages were placed in a rectangular frame containing a grid of 12 photocell beams in an 8 × 4 configuration (Kinder Scientific, Poway, CA) that were positioned 2.5 cm from the floor of the cage for the detection of body movements (ambulations), which were recorded by computer for analysis. Mice were placed inside individual LMA boxes for 1 hour during an acclimation period. Mice were then dosed with test compounds (oral or subcutaneous) and were replaced inside individual LMA boxes for the start of LMA. Photocell activity (total ambulations) was collected for 60 minutes using software from Hamilton Kinder (Poway, CA).
Calculation of data based on total ambulations was done using Excel (Microsoft, Redmond, WA). Graphing and statistical analysis of data were done using one-way analysis of variance followed by Dunnett’s multiple comparison test using GraphPad Prism.

dog D1 receptor = dog D1 receptor (Canis lupus familiaris, UniProt A0A8I3RQT9); experiment: cAMP potentiation, transiently expressed dog D1 receptor in HEK293 cells; type: cell-based; settings: Dog D1, transient
Sequence of dog D1 receptor (A0A8I3RQT9 1-446): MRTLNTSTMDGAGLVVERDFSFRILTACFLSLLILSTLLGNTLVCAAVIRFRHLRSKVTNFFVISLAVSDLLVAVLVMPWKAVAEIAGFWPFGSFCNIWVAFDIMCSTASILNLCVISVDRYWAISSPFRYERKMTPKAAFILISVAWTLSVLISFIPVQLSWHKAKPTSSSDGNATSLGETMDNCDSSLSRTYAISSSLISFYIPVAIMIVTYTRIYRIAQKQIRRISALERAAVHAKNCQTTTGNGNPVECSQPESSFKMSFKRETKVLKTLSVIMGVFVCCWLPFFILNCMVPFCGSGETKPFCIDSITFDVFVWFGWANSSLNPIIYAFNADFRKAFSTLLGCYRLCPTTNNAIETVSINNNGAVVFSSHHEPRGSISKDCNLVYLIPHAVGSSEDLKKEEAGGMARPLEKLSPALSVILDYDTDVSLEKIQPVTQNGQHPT
Procedure: The human, rhesus monkey, dog, or mouse D1 receptor was cloned into the Jump-In vector system (Life Technologies, Austin, TX) and transiently transfected into HEK293 cells using Fugene HD (Promega, Madison, WI). After 2 days of growth in DMEM medium containing 10% FBS, 10 mM HEPES, and 100 µg/ml ampicillin at 37°C in 5% CO2, the cells were harvested with TrypLE Express (GIBCO), resuspended in FBS containing 8% DMSO, and stored in 1-ml aliquots (10 × 10^6 cells/ml) at −70°C. The cAMP accumulation was measured as described for hD1 except that 6000 to 10,000 cells per well were used and the EC20 concentration of dopamine used was 0.7 nM (final).

[7] = target: T3, rhesus monkey D1 receptor (Macaca mulatta, UniProt O77680); experiment: cAMP potentiation, transiently expressed rhesus monkey D1 receptor in HEK293 cells; type: cell-based; settings: Rhesus D1, transient
T3 construct: expressed in transfected cells; host or cells: HEK293, transient (Fugene HD)
T3 sequence (O77680 whole entry): as the sequence (P21728 whole entry) above, with N311I counted along it

β1 receptor = β1 receptor (Homo sapiens, UniProt P08588); experiment: β1 cAMP assay (DiscoveRx); type: cell-based; settings: potentiator, agonist and antagonist mode, up to 10 µM
Sequence of β1 receptor (P08588 whole entry): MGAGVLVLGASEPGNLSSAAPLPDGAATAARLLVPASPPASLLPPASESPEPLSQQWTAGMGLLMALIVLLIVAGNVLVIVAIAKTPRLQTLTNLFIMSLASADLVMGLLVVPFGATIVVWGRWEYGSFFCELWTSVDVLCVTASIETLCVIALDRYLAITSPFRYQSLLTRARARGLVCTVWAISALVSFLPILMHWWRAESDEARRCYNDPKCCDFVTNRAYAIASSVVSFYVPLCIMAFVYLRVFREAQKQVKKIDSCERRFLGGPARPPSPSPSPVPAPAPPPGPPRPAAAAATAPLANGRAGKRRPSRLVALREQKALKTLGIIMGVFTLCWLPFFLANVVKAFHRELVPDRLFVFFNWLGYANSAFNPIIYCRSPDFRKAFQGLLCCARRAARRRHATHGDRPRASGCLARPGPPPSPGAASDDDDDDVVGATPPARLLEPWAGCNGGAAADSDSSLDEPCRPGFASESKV
Procedure: as §1

rat D1 receptor = target: T4, rat D1 receptor (Rattus norvegicus, UniProt P18901); experiment: cAMP response in rD1 HEK293 cells; type: cell-based
T4 construct: expressed in transfected cells
T4 sequence (P18901 whole entry): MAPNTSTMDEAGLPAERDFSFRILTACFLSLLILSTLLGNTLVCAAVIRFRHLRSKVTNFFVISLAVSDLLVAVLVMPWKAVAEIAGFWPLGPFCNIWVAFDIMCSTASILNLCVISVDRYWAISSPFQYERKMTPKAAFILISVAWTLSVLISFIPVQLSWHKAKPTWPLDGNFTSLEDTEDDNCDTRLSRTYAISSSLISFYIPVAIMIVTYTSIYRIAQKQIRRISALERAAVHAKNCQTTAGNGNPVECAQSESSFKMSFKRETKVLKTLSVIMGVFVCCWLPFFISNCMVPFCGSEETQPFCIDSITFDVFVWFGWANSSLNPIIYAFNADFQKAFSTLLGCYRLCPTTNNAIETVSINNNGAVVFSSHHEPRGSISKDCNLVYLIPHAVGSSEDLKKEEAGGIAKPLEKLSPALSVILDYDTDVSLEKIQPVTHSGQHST

C[C@H]1c2cccc(C(C)(C)O)c2C[C@H](CO)N1C(=O)Cc1c(Cl)cccc1Cl [DETQ, 2-(2,6-dichlorophenyl)-1-((1S,3R)-3-(hydroxymethyl)-5-(2-hydroxypropan-2-yl)-1-methyl-3,4-dihydroisoquinolin-2(1H)-yl)ethan-1-one]
Activity at 5HT6 receptor (5HT6 receptor): inactive | LMA activity in wild-type mice (wild-type C57Bl/6 mice; 3–20 mg/kg orally): inactive in wild-type mice | Increase in LMA (wild-type C57Bl/6 mice; wild-type C57Bl/6 mice, 30 mg/kg oral, P = 0.07, not significant): 32% | Activity at 10 additional targets of the Lilly selectivity panel [1]: inactive | Effect on affinity of dopamine to inhibit SCH23390 binding (human D1 receptor [2]): increased the affinity of dopamine | Activity at D2 receptor (D2 receptor): inactive | Activity at β2 receptor (β2 receptor): inactive | Selectivity for the D1 receptor over D5 (human D5 receptor): > 1000 fold | Activity at human D5 receptor (human D5 receptor; potentiator mode, up to 25 µM): inactive | Top (%) (human D1 receptor [3]): 75.6% | EC50 (human D1 receptor [3]; 0.7 nM dopamine): 11.4 nM | Response in hD1 mice depleted of dopamine by reserpine (hD1 mice [4]): did not reverse hypokinesia; also recorded: absent | Free brain levels after oral dosing ([5]; 240 mg/kg oral, immediately after LMA testing): ~600 nM | concentration at 6 h ([5]; hD1 knock-in, mouse, brain (unbound), 240 mg/kg oral twice daily, at 6 hours, n = 3, read-out: Unbound brain levels): 19.8 ± 1.5 nM | concentration at 12 h ([5]; hD1 knock-in, mouse, brain (unbound), 240 mg/kg oral twice daily, at 12 hours, n = 3, read-out: Unbound brain levels): 30.8 ± 9.4 nM | EC50 (hD1 mice [6]; Mus musculus, four-parameter fit, unbound brain concentration, hD1 mice, read-out: EC50 in LMA versus unbound brain levels): 9.2 nM | Overt adverse behavioral effects (hD1 mice [6]; any of the doses (up to 240 mg/kg)): no overt adverse behavioral effects were observed | Bottom of LMA versus unbound brain level curve (hD1 mice [6]; four-parameter fit): 40 % of control | Top of LMA versus unbound brain level curve (hD1 mice [6]; four-parameter fit): 1,590 % of control | LMA response after twice-daily dosing (hD1 mice [6]; hD1 mice, 240 mg/kg oral twice daily): No tachyphylaxis | LMA response on repeated once-a-day dosing (hD1 mice [6]; hD1 mice, once daily for 4 days): undiminished on day 4 | Shape of LMA dose-response curve (hD1 mice [6]; hD1 mice, DETQ up to 240 mg/kg): did not show any drop-off at higher doses | ED4X (dose causing a 4-fold increase in LMA) (hD1 mice [6]; habituated hD1 mice, oral): 7.2 mg/kg | Top (%) (dog D1 receptor): 85.2% | EC50 (dog D1 receptor; 0.7 nM dopamine): 8.6 nM | Top (%) [7]: 80.0% | EC50 ([7]; 0.7 nM dopamine): 12 nM | Activity at β1 receptor (β1 receptor): inactive | Loss of functional affinity/potency at rat D1 versus human D1 (rat D1 receptor): ~30 fold and 28 fold | Emax (rat D1 receptor; HEK293, rat D1, read-out: Maximum response relative to that of dopamine): 39.9% | EC50 (rat D1 receptor; rat D1, 5 nM dopamine (EC20), n = 4, read-out: EC50, cAMP potentiation): 162 ± 18 nM
